Experimental data published in publication PMC11324046, “Second-generation piperazine derivatives as promising radiation countermeasures” (RSC Medicinal Chemistry, 2024).

Assays:
[1] = WST-1 proliferation assay, A549; type: cell-based; details: human, A549 cells (lung carcinoma), vs 0.1% DMSO control = 100%, mean ± standard deviation
Experimental: (§1) A thorough analysis of antiproliferative activity was performed across various cell culture types representing different histotypes: leukemia (Jurkat, MOLT-4), lung adenocarcinoma (A549), colorectal adenocarcinoma (HT-29), pancreatic carcinoma (PANC-1), breast adenocarcinoma (MCF-7), osteosarcoma (SAOS-2), and one non-cancerous cell line (fetal lung fibroblasts MRC-5). The cell lines were exposed to the newly synthesized compounds at a concentration of 100 μM for 48 h in a single-dose treatment. Changes in cell proliferation compared to the vehicle 0.1% dimethyl sulfoxide (DMSO) control were determined using the WST-1 assay, which is based on mitochondrial dehydrogenase metabolic activities. […] The overall cytotoxic activity of each compound was expressed as growth percent (GP) – the mean of the proliferation of all cell lines treated with the same compound.
(§2) Selected human tumor and non-tumor cell lines Jurkat (acute T-cell leukemia), MOLT-4 (acute lymphoblastic leukemia), A549 (lung carcinoma), HT-29 (colorectal adenocarcinoma), PANC-1 (pancreas epithelioid carcinoma), MCF-7 (breast adenocarcinoma), SAOS-2 (osteosarcoma) and MRC-5 (normal lung fibroblasts) were purchased from either American Type Culture Collection (ATCC; VA, USA) or Sigma-Aldrich (St. Louis, MO, USA) and cultured according to the provider's culture method guidelines. All cell lines were maintained at 37 °C in a humidified 5% carbon dioxide and 95% air incubator. Cells in the maximum range of either 10 passages for the adherent cell lines (A549, HT-29, PANC-1, MCF-7, SAOS-2, and MRC-5), or 20 passages for suspension cell lines (Jurkat, MOLT-4,) and in an exponential growth phase were used for this study. Screening of the antiproliferative effect and growth percent calculation were conducted as follows: each cell line was seeded at previously established optimal density (1–50 × 10^3 cells per well) in a 96-well plate (TPP, Trasadingen, Switzerland) and cells were allowed to settle overnight. Cells were treated for 48 h with compounds at a final concentration of 100 μM. At the end of the cultivation period, the WST-1 proliferation assay (Roche, Basel, Switzerland) was performed according to the manufacturer's protocol. The absorbance was measured at 440 nm using a Tecan Spark multimode microplate reader (Tecan, Mannedorf, Switzerland). Each value is the mean of three independent experiments and represents the percentage of proliferation (100% cell proliferation for 0.1% DMSO mock-treated control cells). The GP value was calculated for each compound tested. GP represents the mean of the percentage proliferation decrease of all cell lines treated with the same compound.

[2] = WST-1 proliferation assay, MCF-7; type: cell-based; details: human, MCF-7 cells (breast adenocarcinoma), vs 0.1% DMSO control = 100%, mean ± standard deviation
Experimental: as §1, §2

[3] = WST-1 proliferation assay, SAOS-2; type: cell-based; details: human, SAOS-2 cells (osteosarcoma), vs 0.1% DMSO control = 100%, mean ± standard deviation
Experimental: as §1, §2

[4] = WST-1 proliferation assay, MRC-5; type: cell-based; details: human, MRC-5 cells (normal lung fibroblasts), vs 0.1% DMSO control = 100%, mean ± standard deviation
Experimental: as §1, §2

in vitro = details: male, human
Experimental: (§3) To represent the overall inhibitory activity of each compound, viability was calculated as the mean of at least three independent measurements. The purpose was to determine the optimal non-toxic concentration for subsequent use in radioprotection tests.
(§4) Whole blood from a healthy donor was diluted 1 : 1 with Dulbecco's phosphate buffered saline (Sigma-Aldrich, St. Louis, MO, USA). The diluted blood was slowly and carefully pipetted onto an equal volume of Histopaque®-1077 (Sigma-Aldrich, St. Louis, MO, USA). The entire process was carried out at room temperature. Subsequently, centrifugation was performed at 700 × g with the slowest acceleration and deceleration for 20 min at 20 °C. The resulting PBMCs ring was aspirated and centrifuged at 450 × g for 10 min at 20 °C with normal acceleration and deceleration. The cells were washed twice with RPMI 1640 medium with GlutaMAX (Gibco by Thermo Fisher Scientific, Waltham, MA, USA). After the second wash and centrifugation, the cells were diluted with cultivation medium RPMI 1640 with GlutaMAX supplemented with 20% inactivated fetal bovine serum (both Gibco by Thermo Fisher Scientific, Waltham, MA, USA) and 1% antibiotic solution of penicillin, 10 000 IU ml^−1 and streptomycin, 10 mg ml^−1 (Sigma-Aldrich, St. Louis, MO, USA). At the end, the cells were counted using Türk's solution.
(§5) PBMCs were plated into 96-well plates at a cell density of approximately 5 × 10^4 cells per well in a volume of 100 μl. Cells were treated with tested compounds in concentrations of 10, 20, 50, 100, 200, 500, and 1000 μM to determine the optimal non-toxic concentration for each. Cells were incubated for 48 h in a humidified atmosphere with 5% CO2 at 37 °C. 20 μl of MTS – CellTiter 96® AQueous One Solution Cell Proliferation Assay (Promega, Madison, WI, USA) was added to each well 4 h before spectrometric analysis. Cell viability was then determined by measuring absorbance at 490 nm using the Synergy H1 instrument by BioTek. The absorbance of the cell-free culture medium was used as a blank and subtracted from the absorbance readings obtained during the experiment. The viability of untreated control cells was set as 100%.

PBMCs = experiment: in vitro; details: 48 h
Experimental: as §3, §4, §5

[5] = peripheral blood mononuclear cells (PBMCs)

| SMILES | viability at 48 h, 100 µM [1] [%] | viability at 48 h, 100 µM [2] [%] | viability at 48 h, 100 µM [3] [%] | viability at 48 h, 100 µM [4] [%] | viability at 48 h, 10 µM (in vitro) [%] | viability at 48 h, 20 µM (in vitro) [%] | viability at 48 h, 50 µM (in vitro) [%] | viability at 48 h, 100 µM (in vitro) [%] | viability at 48 h, 200 µM (in vitro) [%] | viability at 48 h, 500 µM (in vitro) [%] | viability at 48 h, 1000 µM (in vitro) [%] | Optimal non-toxic concentration (PBMC viability not below 100% at 0.05 significance level and higher than 90%) (PBMCs; male, human) [µM] | also measured |
| --- | --- | --- | --- | --- | --- | --- | --- | --- | --- | --- | --- | --- | --- |
| COc1cc([N+](=O)[O-])ccc1OCC(O)CN1CCN(CCO)CC1 (stereo not shown) [Compound 1, 1-(4-(2-Hydroxyethyl)piperazin-1-yl)-3-(2-methoxy-4-nitrophenoxy)propan-2-ol] | 112 ± 8 | 100 ± 9 | 101 ± 16 | 111 ± 9 | 114 ± 14 | 110 ± 11 | 111 ± 15 | 101 ± 17 | 102 ± 21 | 97 ± 22 | 60 ± 10 | 500 | – |
| COc1ccc(OCC(O)CN2CCN(CCO)CC2)c([N+](=O)[O-])c1 (stereo not shown) [Compound 2, 1-(4-(2-Hydroxyethyl)piperazin-1-yl)-3-(4-methoxy-2-nitrophenoxy)propan-2-ol] | 111 ± 11 | 97 ± 8 | 103 ± 9 | 105 ± 1 | 102 ± 12 | 100 ± 11 | 99 ± 6 | 98 ± 8 | 99 ± 11 | 93 ± 3 | 78 ± 4 | 500 | – |
| O=[N+]([O-])c1ccc(OCC(O)CN2CCN(CCO)CC2)c(F)c1 (stereo not shown) [Compound 3, 1-(4-(2-Hydroxyethyl)piperazin-1-yl)-3-(2-fluoro-4-nitrophenoxy)propan-2-ol] | 106 ± 11 | 91 ± 12 | 92 ± 14 | 103 ± 6 | 98 ± 5 | 95 ± 14 | 90 ± 9 | 92 ± 6 | 92 ± 5 | 92 ± 9 | 81 ± 11 | 500 | – |
| OCCN1CCN(CC(O)COc2ccc(F)cc2)CC1 (stereo not shown) [Compound 4, 1-(4-(2-Hydroxyethyl)piperazin-1-yl)-3-(4-fluorophenoxy)propan-2-ol] | 112 ± 14 | 102 ± 5 | 102 ± 6 | 103 ± 2 | 104 ± 18 | 103 ± 26 | 112 ± 30 | 107 ± 30 | 110 ± 33 | 110 ± 28 | 105 ± 10 | 1000 | viability at 48 h, 2000 µM (in vitro): 53 ± 5%; viability at 48 h, 5000 µM (in vitro): 39 ± 5% |
| O=[N+]([O-])c1cc(OCC(O)CN2CCN(CCO)CC2)ccc1Cl (stereo not shown) [Compound 5, 1-(4-(2-Hydroxyethyl)piperazin-1-yl)-3-(4-chloro-3-nitrophenoxy)propan-2-ol] | 109 ± 9 | 104 ± 11 | 89 ± 3 | 98 ± 3 | 121 ± 25 | 99 ± 8 | 111 ± 7 | 102 ± 9 | 107 ± 5 | 79 ± 3 | 44 ± 11 | 200 | – |
| OCCN1CCN(CC(O)COc2cccc(Cl)c2)CC1 (stereo not shown) [Compound 6, 1-(4-(2-Hydroxyethyl)piperazin-1-yl)-3-(3-chlorophenoxy)propan-2-ol] | 99 ± 11 | 86 ± 12 | 120 ± 26 | 97 ± 1 | 94 ± 12 | 96 ± 5 | 99 ± 4 | 99 ± 7 | 96 ± 6 | 94 ± 7 | 51 ± 4 | 500 | – |
| NCCCNCCS [WR1065, reference compound] | 3 | 2 | 7 ± 4 | 3 ± 1 | 57 ± 39 | 47 ± 34 | 19 ± 17 | 16 ± 14 | 21 ± 8 | 27 ± 9 | – | – | Decrease in cell viability of PBMCs (PBMCs; 10 μM (lowest tested concentration)): 43% |
| NCCCNCCSP(=O)(O)O [WR2721, amifostine, reference compound] | 5 | 7 ± 2 | 9 ± 3 | 8 ± 4 | – | – | – | – | – | – | – | – | viability at 48 h, 10 µM (in vitro; [5]): 93 ± 17%; viability at 48 h, 20 µM (in vitro; [5]): 75 ± 30%; viability at 48 h, 50 µM (in vitro; [5]): 37 ± 9%; viability at 48 h, 100 µM (in vitro; [5]): 33 ± 12%; viability at 48 h, 200 µM (in vitro; [5]): 35 ± 17%; viability at 48 h, 500 µM (in vitro; [5]): 37 ± 20%; Change of PBMC viability (in words) (PBMCs; 20 μM): significant decrease; Optimal non-toxic concentration (PBMC viability not below 100% at 0.05 significance level and higher than 90%) (PBMCs; PBMCs, MTS): 10 µM |
